Where “and” joins values, the source holds several entries; their conditions need not be identical. Identical values can stand only once. Like-named read-outs stand apart in the source and are kept apart here.
Key:
[1] = system: HER2-overexpressing human esophagus cancer cell line OE19; type: in vivo; conditions: day 20, zongertinib 20 mg/kg qdx20 p.o., T-DXd 3 mg/kg q21dx1 i.v., alone or combined; for Regressions >30%: tumors regressed/total
Method: The study is performed in human esophagus cancer cell line OE19 grown as subcutaneous xenografts in NMRI-Foxn1^nu mice. Day 1 was the first day, day 20 the final day of analysis.
OE19 is a HER2-overexpressing human esophagus cancer cell line that can be obtained from the European Collection of Authenticated Cell Cultures (ACACC Cat. No. 960071721). Cells are cultured in T75, T175 and 5-Layer tissue culture flasks at 37° C. and 5% CO2. The medium used is RPMI 1640 (ATCC #30-2001) supplemented with 10% FCS (Thermo Scientific #SH 30084.03). Cultures are split twice weekly with a ratio of 1:3-1:4.
To establish subcutaneous tumors, OE19 cells are harvested by centrifugation, washed and resuspended in PBS+5% FCS at 5×10^7 cells/ml. 100 μl cell suspension containing 5×10^6 cells is injected subcutaneously into the right flank of the mice (1 site per mouse).
Tumor volumes and side effects are monitored as described in Example 1 (see paragraph 1.1.6), except that control animals are sacrificed when the median tumor volume of the group reaches a size of approximately 1190 mm^3.
The statistical evaluation of the tumor volume and the body weight is conducted on day 20.

[2] = system: HER2-overexpressing human esophagus cancer cell line OE19; assay: OE19 subcutaneous xenograft, zongertinib with trastuzumab; type: in vivo, NMRI-Foxn1^nu mice; conditions: day 14; for Regressions >30%: tumors regressed/total (partial response)
Method: The study is performed in human esophagus cancer cell line OE19 grown as subcutaneous xenografts in NMRI-Foxn1^nu mice. Day 1 was the first day, day 14 the last day of treatment and final day of analysis.
OE19 is obtained and cultured as described in Example 3 (see paragraph 3.1.2).
Mice in the control group are treated with vehicle, i.e.: • (iii) 0.5% Natrosol, administered once daily for the duration of the treatment intragastrally by gavage needle with a volume of 10 ml/kg body weight; and • (iv) saline (0.9%), administered once weekly intraperitoneally with a volume of 10 ml/kg.
Tumor volumes and side effects are monitored as described in Example 1 (see paragraph 1.1.6), except that control animals are sacrificed when the median tumor volume of the group reaches a size of approximately 640 mm^3.
The statistical evaluation of the tumor volume and the body weight is conducted on day 14 (last day of the study). Apart from this, statistical analysis was performed as described in Example 1 (see paragraph 1.1.7), with no evaluation of tumor growth after stop of treatment.

[3] = system: HER2-overexpressing human breast cancer cell line SUM190PT; assay: SUM190PT subcutaneous xenograft, zongertinib with T-DM1; type: in vivo, NMRI-Foxn1^nu mice; conditions: day 21, alone or combined; for stable disease: number of tumors out of 8, zongertinib 20 mg/kg qdx21, T-DM1 3 mg/kg q21dx1; for Regressions >30%: tumors regressed/total (partial response); for Regressions >30% / TGI: zongertinib 20 mg/kg qdx21 p.o., T-DM1 3 mg/kg q21dx1 i.v.
Method: The study is performed in human breast cancer cell line SUM190PT grown as subcutaneous xenografts in NMRI-Foxn1^nu mice. Day 1 was the first day, day 21 the last day of treatment and final day of analysis.
SUM190PT is a HER2-overexpressing human breast cancer cell line that can be obtained from Asterand Bioscience (BioIVT). Cells are cultured in T75, T175 and 5-Layer tissue culture flasks at 37° C. and 5% CO2. The medium used is ACL-4 (Thermo Fisher Scientific #041-95574M Custom Batch) supplemented with 0.5% bovine serum albumin (JHR 85-041-025), 0.02 mg/ml insulin (Sigma I5500), 0.01 mg/ml transferrin (Sigma T-2252), 25 nM sodium selenite (Sigma S9133), 50 nM Hydrocortisone (Sigma H-4001), 1 ng/ml Epidermal Growth Factor (unfiltered, Sigma E4127), 0.01 mM ethanolamine (Sigma E-0135), 0.01 mM phosphorylethanolamine (Medchem HY-N5034), 100 pM triiodothyronine (Sigma T5516), 0.5 mM sodium pyruvate (Sigma S8636) and 2 mM L-glutamine (Gibco 11539876). Cultures are split once weekly with a ratio of 1:2.
To establish subcutaneous tumors, SUM190PT cells are harvested by centrifugation, washed and resuspended in PBS+2.5% FCS+50% Matrigel (Corning #2165001) at 5×10^7 cells/ml. 100 μl cell suspension containing 5×10^6 cells is injected subcutaneously into the right flank of the mice (1 site per mouse). Mice are randomly distributed between the treatment and the vehicle control group (13 days after cell injection) when tumors are well established and have reached volumes of 100 to 180 mm^3.
Tumor volumes and side effects are monitored as described in Example 1 (see paragraph 1.1.6), except that control animals were analysed when the median tumor volume of the group reaches a size of approximately 700 mm^3.
The statistical evaluation of the tumor volume and the body weight is conducted on day 21 (last day of the study). Apart from this, statistical analysis was performed as described in Example 1 (see paragraph 1.1.7), with no evaluation of tumor growth after stop of treatment.

[4] = system: HER2-overexpressing human breast cancer cell line BT-474; assay: BT-474 orthotopic xenograft, zongertinib with T-DM1; type: in vivo, NMRI-Foxn1^nu mice; conditions: for stable disease / Regressions >30% / TGI: day 42; for stable disease: number of tumors; for stable disease / mice that lost some weight and had to be euthanized: zongertinib 10 mg/kg qdx42, T-DM1 6 mg/kg q21dx2, monotherapies; for Regressions >30%: tumors regressed/total (partial response); for Regressions >30% / TGI: zongertinib 10 mg/kg qdx42 p.o., T-DM1 6 mg/kg q21dx2 i.v., alone or combined
Method: The study is performed in human breast cancer cell line BT-474 grown as orthotopic xenografts in NMRI-Foxn1^nu mice. Day 1 was the first day, day 42 the last day of treatment and final day of analysis.
BT-474 is obtained and cultured as described in Example 10 (see paragraph 10.1.2).
Tumors are established and randomized as described in Example 10 (see paragraph 10.14), except that mice are randomly distributed between the treatment and the vehicle control group (22 days after cell injection) when tumors are well established and have reached volumes of 84 to 310 mm^3.
Tumor volumes and side effects are monitored as described in Example 1 (see paragraph 1.1.6), except that control animals are sacrificed when the median tumor volume of the group reaches a size of approximately 710 mm^3.
The statistical evaluation of the tumor volume and the body weight is conducted on day 42 (last day of the study). Apart from this, statistical analysis was performed as described in Example 1 (see paragraph 1.1.7), with no evaluation of tumor growth after stop of treatment.

[5] = zongertinib 20 mg/kg qdx14 p.o., trastuzumab 20 mg/kg q7dx2 i.p., alone or combined

Row | Molecule | Regressions >30% [1] | Regressions >30% ([1]; listed as zongertinib) | TGI [1] | stable disease ([2]; number of tumors out of 8, zongertinib 20 mg/kg qdx14, trastuzumab 20 mg/kg q7dx2, monotherapies) | Regressions >30% [2, 5] | Regressions >30% ([2]; zongertinib 20 mg/kg qdx14 p.o., trastuzumab 20 mg/kg q7dx2 i.p., alone or combined, listed as zongertinib) | TGI [2, 5] | stable disease [3] | Regressions >30% [3] | TGI [3] | stable disease [4] | Regressions >30% [4] | Regressions >30% ([4]; listed as zongertinib) | TGI [4] | mice that lost some weight and had to be euthanized [4]
1 | C=CC(=O)NC1CCN(c2ncc3ncnc(Nc4ccc(Oc5ccc6c(c5)ncn6C)c(C)c4)c3n2)CC1 [Zongertinib, N-{1-[8-({3-methyl-4-[(1-methyl-1H-1,3-benzodiazol-5-yl)oxy]phenyl}amino)-[1,3]diazino [5,4-d]pyrimidin-2-yl]piperidin-4-yl}prop-2-enamide] | 0/8 | no tumors | 73% | no stable disease | 0/8 | no partial response | 80% | no stable disease | 0/8 | 64% | no stable disease | 0/7 | no partial responses | 86% | 1 out of 8
2 | trastuzumab emtansine [T-DM1, reference compound] | – | – | – | – | – | – | – | 3 | 0/8 | 90% | 3 | 1 and 1/5 | – | 85% | 2 out of 8
